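Cells were grown in 96-well plates and exposed to each compound for 48 hours at five concentrations; endpoints were interpolated linearly between bracketing concentrations, or set to the highest concentration if not reached. GI50: concentration for 50% inhibition of growth. TGI: concentration producing complete growth inhibition.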
Tests used:
Assay in all cases: NCI anticancer screen, dose series, 48 h
M14 melanoma = test system: M14 melanoma
SNB-75 CNS = test system: SNB-75 CNS
NCI-H226 lung = test system: NCI-H226 lung
UO-31 renal = test system: UO-31 renal
SN12C renal = test system: SN12C renal
OVCAR-4 ovarian = test system: OVCAR-4 ovarian
LOX IMVI melanoma = test system: LOX IMVI melanoma
ACHN renal = test system: ACHN renal
SF-539 CNS = test system: SF-539 CNS
NCI-H460 lung = test system: NCI-H460 lung

Compound | GI50 (M14 melanoma) [µM] | TGI (M14 melanoma) [µM] | GI50 (SNB-75 CNS) [µM] | TGI (SNB-75 CNS) [µM] | GI50 (NCI-H226 lung) [µM] | TGI (NCI-H226 lung) [µM] | GI50 (UO-31 renal) [µM] | TGI (UO-31 renal) [µM] | GI50 (SN12C renal) [µM] | TGI (SN12C renal) [µM] | GI50 (OVCAR-4 ovarian) [µM] | TGI (OVCAR-4 ovarian) [µM] | GI50 (LOX IMVI melanoma) [µM] | TGI (LOX IMVI melanoma) [µM] | GI50 (ACHN renal) [µM] | TGI (ACHN renal) [µM] | GI50 (SF-539 CNS) [µM] | TGI (SF-539 CNS) [µM] | GI50 (NCI-H460 lung) [µM] | TGI (NCI-H460 lung) [µM]
COc1cc2c(cc1C)NC(=O)/C2=C\c1cccc(Oc2ccccc2)c1 | 16.6 | 31 | 25 | 49.6 | 21 | 38.1 | 11.7 | 27.5 | 13.2 | 25.9 | 14.4 | 35.6 | 12.9 | 26.4 | 17.3 | 31 | 19.4 | 34.5 | 12.9 | 27.2
O=C(Cn1ccnc1[N+](=O)[O-])c1ccc(F)cc1 | – | > 100 | – | > 100 | – | > 100 | – | > 100 | – | > 100 | – | > 100 | – | > 100 | – | > 100 | – | > 100 | – | > 100
CN(C)c1ccc(Nc2cc(-c3cccc(OC(F)(F)F)c3)nc3ccc(N4CCCC4)cc23)cc1 | 1.7 | 3.32 | 1.64 | 3.12 | 3.49 | 15.4 | 1.77 | 3.17 | 1.78 | 3.5 | 1.98 | 3.77 | 1.73 | 3.25 | 2.05 | 4.36 | 1.77 | 3.36 | 1.92 | 3.66
COc1ccc(-c2nc3ccccn3c2/C=C/C(=O)c2cc(OC)c(OC)c(OC)c2)cc1 | 9.8 | 28.6 | 5.49 | 54.5 | 24.1 | > 100 | 1.31 | > 100 | 11.4 | > 100 | 5.72 | > 100 | 6.05 | > 100 | 3.26 | > 100 | 2.39 | 11.5 | 4.09 | 31
S=c1cc(S)sc2c1c(=S)sc1nc3ccccn3c(=S)c12 | – | > 100 | – | > 100 | – | > 100 | – | > 100 | – | > 100 | – | > 100 | – | > 100 | – | > 100 | – | > 100 | – | 92.1
C[C@]1(CO)CCC[C@@]2(C)C1CC[C@H]1CC3C[C@]12CC[C@]3(C)O (some centres undefined) | – | > 100 | – | > 100 | – | > 100 | – | – | – | > 100 | – | > 100 | – | > 100 | – | > 100 | – | > 100 | – | 36.8
Nc1nc(-c2ccccc2)nc(N)c1N=O | 5.68 | 19.5 | 5.21 | 19.1 | 4.87 | 21.2 | 10 | 29.2 | 4.51 | 18.1 | 7.39 | 79.4 | 3.14 | 13 | 4 | 14.1 | 5.69 | 19.5 | 8.02 | 27.9
